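Results reflect a 48-hour exposure of cells in 96-well plates to compound at five concentrations. GI50 is the concentration that inhibits growth by half. TGI denotes the concentration required for complete inhibition of growth.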
Experiments:
Assay in all cases: NCI anticancer screen, dose series, 48 h
CCRF-CEM leukemia = test system: CCRF-CEM leukemia
HL-60(TB) leukemia = test system: HL-60(TB) leukemia
HOP-92 NSCLC = test system: HOP-92 NSCLC
NCI-H460 lung = test system: NCI-H460 lung
SK-MEL-28 melanoma = test system: SK-MEL-28 melanoma
SK-MEL-5 melanoma = test system: SK-MEL-5 melanoma
SR leukemia = test system: SR leukemia
COLO 205 colon = test system: COLO 205 colon
DU-145 prostate = test system: DU-145 prostate
SK-OV-3 ovarian = test system: SK-OV-3 ovarian

SMILES | TGI (CCRF-CEM leukemia) [µM] | TGI (HL-60(TB) leukemia) [µM] | TGI (HOP-92 NSCLC) [µM] | TGI (NCI-H460 lung) [µM] | TGI (SK-MEL-28 melanoma) [µM] | TGI (SK-MEL-5 melanoma) [µM] | TGI (SR leukemia) [µM] | GI50 (CCRF-CEM leukemia) [µM] | GI50 (COLO 205 colon) [µM] | TGI (COLO 205 colon) [µM] | GI50 (DU-145 prostate) [µM] | TGI (DU-145 prostate) [µM] | GI50 (HOP-92 NSCLC) [µM] | GI50 (NCI-H460 lung) [µM] | GI50 (SK-MEL-28 melanoma) [µM] | GI50 (SK-MEL-5 melanoma) [µM] | GI50 (SR leukemia) [µM] | TGI (SK-OV-3 ovarian) [µM] | GI50 (SK-OV-3 ovarian) [µM]
COc1cc2ccc1-c1cc(ccc1O)CC1c3cc4c(cc3CCN1C)Oc1c(OC)cc3c(c1O4)C(C2)N(C)CC3 (stereo not drawn) | 5.18 | 4.53 | 27 | 3.23 | 2.89 | 3.52 | 4 |  |  |  |  |  |  |  |  |  |  |  | 
CC[C@H](Nc1nc(N)nc(N)c1Cl)c1nc2cccc(NCc3ccc(C(=O)NO)cc3)c2c(=O)n1-c1ccccc1 | > 100 |  | 2.81 | 4.43 | 3.21 | 3.22 | > 100 | 1.35 | 2.24 | 5.73 | 2.91 | 10.5 | 1.26 | 1.94 | 1.55 | 1.75 | 0.579 |  | 
Cc1ncc(CO)c(CN)c1O | > 100 | > 100 |  | > 100 | > 100 | > 100 |  |  |  | > 100 |  | > 100 |  |  |  |  |  | > 100 | 
COc1cnc2c(c1)C(=O)c1c-2n(CCCN2CCNCC2)c(=O)c2cc(Cl)ccc12 |  |  | 13.7 | 1.29 |  |  |  |  | 0.783 | 2.41 | 0.242 | 1.2 | 1.12 | 0.0449 |  |  |  | 2.51 | 1.16
CC(C)CNc1nc(N)[nH]c(=O)c1NC=O | > 100 | > 100 | > 100 | > 100 | > 100 | > 100 |  |  |  | > 100 |  | > 100 |  |  |  |  |  | > 100 | 
Cc1c2ccnc(-c3ccccc3)c2cc2c1[nH]c1ccccc12 | 10.6 | 5.35 | 3.12 | 7.36 | 19.5 | 2.78 |  |  |  | 6.1 |  |  |  |  |  |  |  | 9.39 | 
Cn1cnc([N+](=O)[O-])c1SCC(=O)O | > 100 | > 100 | > 100 | > 100 | > 100 | > 100 | > 100 |  |  | > 100 |  | > 100 |  |  |  |  |  | > 100 | 
O=C(c1cc(Br)ccc1O)c1cc(Br)ccc1O | 44.4 | 44.1 | 27.1 | 32.1 | 31.1 | 25.4 |  |  |  | 33.4 |  | 29.2 |  |  |  |  |  | 35.8 | 
NCS(=O)(=O)O | > 100 | > 100 | > 100 | > 100 | > 100 | > 100 |  |  |  | > 100 |  | > 100 |  |  |  |  |  | > 100 | 
C[n+]1cccc(/C=C/c2ccc3cccc(O)c3n2)c1 | > 100 | 82.3 | > 100 | > 100 | > 100 | > 100 | > 100 |  |  | > 100 |  | > 100 |  |  |  |  |  | > 100 | 
C[C@H]1CCC/C=C/[C@@H]2C[C@H](O)C[C@H]2[C@H](O)[C@@H](S(=O)CCN)CC(=O)O1 (stereo partly drawn) |  |  | > 100 | 0.0743 | > 100 | 0.0295 |  | 0.0729 | < 0.0156 | 0.0436 | 0.163 | 0.552 | 0.274 | 0.0119 | 0.0475 | 0.015 |  |  | 0.0245
COc1cc2c(cc1OC)C(Cl)C(c1ccc(Cl)cc1)=C2Cl (stereo not drawn) | 30.6 | 41 | 32.3 | 29.8 | 41.4 | 28.3 |  |  |  | 32.2 |  |  |  |  |  |  |  | 57.5 | 
Cc1cc(=O)[nH]c(NN2C(Cl)C(=O)C2c2cccc([N+](=O)[O-])c2)n1 (stereo not drawn) | 10.3 | 36.8 | 34.1 | > 100 | 47.2 | 33.5 | 57.8 |  |  | 51.6 |  |  |  |  |  |  |  |  | 
c1ccc2c[n+](CCCCCCCCCC[n+]3ccc4ccccc4c3)ccc2c1 | > 10 | > 10 | > 10 | > 10 | > 10 | > 10 | > 10 |  |  | > 10 |  | > 10 |  |  |  |  |  | > 10 | 
CC(C)(C)C1CCC2(CC1)CCN(CCCN1CCOCC1)CC2 | > 100 | 41.8 | > 63.9 | > 100 | 33.2 | 21.4 | > 100 |  |  | 32.7 |  | > 100 |  |  |  |  |  | > 100 | 
CN(C)CCNC(=O)c1cccc2nc3c4ccccc4c4ccccc4c3nc12 | 3.03 | 4.09 | 39.4 | 2.35 | 3.27 | 15.7 | 13 |  |  | 19.3 |  | 3.2 |  |  |  |  |  | 13.4 | 
O=C(O)c1ccccn1 | > 100 |  | > 100 | > 100 | > 100 | > 100 | > 100 |  |  | > 100 |  |  |  |  |  |  |  |  | 
CN(C)c1ccc(C2CC(=O)C(C#N)=C(c3ccccc3)NN2C)cc1 (stereo not drawn) |  | 19.9 | > 100 | 36.9 | > 100 | 11.9 | > 100 |  |  |  |  |  |  |  |  |  |  | > 100 | 
N=C(N)c1ccc(-c2ccc(-c3ccc(Cl)cn3)s2)cc1 |  |  | 2.67 |  | 3.07 | 3.19 |  |  |  |  | 1.78 | 3.34 | 1.27 |  | 1.67 | 1.77 |  | 3.49 | 1.83
CN(C)c1ccc2nc3c(C(=O)O)cc(=O)c(O)c-3oc2c1 | 57.8 | 72.3 | > 100 | 66 | > 100 | 29.3 | 50.1 |  |  | 60 |  | > 100 |  |  |  |  |  | > 100 | 
CN(C)[C@@H]1C(=O)C(C(=O)NCNCCCC(=O)O)=C(O)[C@@]2(O)C(=O)C3=C(O)c4c(O)cccc4[C@@](C)(O)[C@H]3C[C@@H]12 | > 100 | > 100 | > 100 | > 100 | > 100 | > 100 | > 100 |  |  | > 100 |  |  |  |  |  |  |  | > 100 | 
O=C1c2ccccc2C(=O)c2c(NCCNC(=O)C3CCCN3)ccc(NCCNC(=O)C3CCCN3)c21 (stereo not drawn) | > 100 | > 100 | > 100 |  | > 100 | > 100 | 66.8 |  |  | > 100 |  | > 100 |  |  |  |  |  | > 100 | 
